“And” between values parts separate entries of the source, which are not always exact repeats. Equal entries are not always repeated. Where two headings read alike, the source gives them in different places. Where no end group is shown, it is not given here.
Legend:
[1] = target: T1, ACE (from rabbit lungs) (Oryctolagus cuniculus, UniProt P12822); set-up: method as in 3 sources, ref 29 = [29]; doi:10.1111/j.1365-2621.2001.tb04614.x; 29. Nielsen P.M. Petersen D. Dambmann C. Improved method for determining food protein degree of hydrolysis J. Food Sci. 2001 66 642 646 10.1111/j.1365-2621.2001.tb04614.x ||| ref 43 = [43]; PMID 38470110; doi:10.1021/acs.jafc.4c00829; 43. Martineau-Côté D. Achouri A. Karboune S. L’Hocine L. Antioxidant and Angiotensin-Converting Enzyme Inhibitory Activity of Faba Bean-Derived Peptides After In Vitro Gastrointestinal Digestion: Insi ||| ref 10 = [10]; PMID 36493485; doi:10.1016/j.foodchem.2022.135082; 10. Fadimu G.J. Gan C.Y. Olalere Q.A. Farahnaky A. Gill H. Truong T. Novel antihypertensive peptides from lupin protein hydrolysate: An in-silico identification and molecular docking studies Food Chem; details: read-out: ACE inhibition IC50 (literature), cited from earlier work
T1 construct: ACE (0.1 U, from rabbit lungs, purity > 99.7%, CAS: 9015-82-1) was obtained from Sigma-Aldrich; purchased Sigma-Aldrich (St. Louis, MO, USA); host or cells: rabbit lung tissue
T1 sequence (P12822 34-1310): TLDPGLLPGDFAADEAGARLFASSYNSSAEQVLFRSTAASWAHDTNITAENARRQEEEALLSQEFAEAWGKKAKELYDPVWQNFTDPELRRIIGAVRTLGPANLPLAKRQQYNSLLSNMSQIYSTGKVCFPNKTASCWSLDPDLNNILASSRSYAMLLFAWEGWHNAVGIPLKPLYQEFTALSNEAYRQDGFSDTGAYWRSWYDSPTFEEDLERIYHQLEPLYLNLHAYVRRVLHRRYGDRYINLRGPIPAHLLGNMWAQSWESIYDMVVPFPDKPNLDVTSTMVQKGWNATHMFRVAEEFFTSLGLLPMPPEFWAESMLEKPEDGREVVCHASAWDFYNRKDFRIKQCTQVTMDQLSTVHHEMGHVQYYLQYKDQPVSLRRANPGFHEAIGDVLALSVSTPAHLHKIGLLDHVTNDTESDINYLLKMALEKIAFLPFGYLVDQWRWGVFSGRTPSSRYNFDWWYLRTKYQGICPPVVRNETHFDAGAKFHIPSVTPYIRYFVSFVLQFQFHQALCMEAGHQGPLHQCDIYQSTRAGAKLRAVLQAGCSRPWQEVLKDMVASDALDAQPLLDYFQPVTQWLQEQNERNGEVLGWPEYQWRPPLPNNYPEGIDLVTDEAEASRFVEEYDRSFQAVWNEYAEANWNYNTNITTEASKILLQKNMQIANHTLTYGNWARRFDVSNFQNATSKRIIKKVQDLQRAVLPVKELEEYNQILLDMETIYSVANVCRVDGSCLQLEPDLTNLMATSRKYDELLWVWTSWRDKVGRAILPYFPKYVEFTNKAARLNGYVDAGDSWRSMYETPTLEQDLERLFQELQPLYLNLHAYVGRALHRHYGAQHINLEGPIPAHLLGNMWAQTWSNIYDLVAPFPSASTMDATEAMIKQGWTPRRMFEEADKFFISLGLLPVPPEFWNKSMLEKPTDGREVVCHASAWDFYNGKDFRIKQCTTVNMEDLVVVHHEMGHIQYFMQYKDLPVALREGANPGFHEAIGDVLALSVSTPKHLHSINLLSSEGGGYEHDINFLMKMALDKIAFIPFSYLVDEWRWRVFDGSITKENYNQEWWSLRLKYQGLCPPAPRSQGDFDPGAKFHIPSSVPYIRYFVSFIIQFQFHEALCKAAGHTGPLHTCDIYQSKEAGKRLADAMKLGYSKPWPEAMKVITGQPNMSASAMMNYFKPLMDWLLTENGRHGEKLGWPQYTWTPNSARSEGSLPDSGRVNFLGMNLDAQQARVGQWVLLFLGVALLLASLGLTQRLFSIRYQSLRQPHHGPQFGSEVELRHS

[2] = cited from earlier work
Description: The ACE inhibition and antioxidant activities of […] were stable during gastrointestinal digestion (Figure 3A and Table 2), which is mainly ascribed to the Pro, Val, and Met residues. […] Therefore, the Pro and Val residues of […] were mainly responsible for its gastrointestinal stability. Peptides rich in Pro and br ...

[3] = assay not specified, cited from earlier work
Description: Alternatively, the guanidine of Arg, imidazolyl in His, the free hydroxyl group of Ser, the cyclic amino group of Pro, and the phenolic hydroxyl group of Tyr can quickly quench free radicals, showing excellent antioxidant ability. Moreover, the sulfhydryl group in Cys or Met can inhibit free radicals’ chain reaction by chelating metal ions, which are catalysts for oxidation reactions. Therefore, the residues, including Tyr, Pro, Val, and Met, were responsible for the antioxidant activity of […]. Furthermore, the repeated amino acid sequences “GGG” can enhance the antioxidant ...

[4] = Ferrous ion binding capacity (o-phenanthroline method); type: physicochemical; details: decrease in ferrous concentration per sample concentration, mean ± standard error, at least three tests
Procedure: The ferrous ion binding capacity was determined using the o-phenanthroline method following the same procedures described by Xu et al.. By plugging the absorbance value into the equation of A = 0.3719C + 0.0002 [36], the ferrous ion concentration (C) can be calculated. The ferrous ion binding capacity (mg/g) was defined as the decrease in ferrous concentration of the reaction solution per sample concentration.

[5] = Gastrointestinal stability of peptide–ferrous chelate (ferrous solubility in simulated digestion); type: in vitro ADME
Procedure: Next, the intestinal digestive fluid was added, and digestion was continued at pH 6.8 for 2 h in the EDZF-C002 thermostatic vibrator ([…], 175 rpm).

[6] = target: T1, ACE (from rabbit lungs); experiment: ACE inhibitory ability (hippuric acid method); type: biochemical; details: N = 3
Description: The hippuric acid method was used to measure the samples’ inhibitory ability towards ACE, following the same procedures as Zheng et al.. The absorbance at 228 nm was the hippuric acid content and represented ACE activity; therefore, the inhibitory ability of samples towards ACE was defined as the percentage of reduction in the absorption at 228 nm between the control and sample groups. Moreover, the ACE inhibitory kinetic of SAGH peptides was investigated by employing a Lineweaver–Burk plot with N-hippuryl-L-histidyl-L-leucine (HHL, 0.13–1.32 mmol/L) as the substrate.
(§1) As described by Wu et al., the simulative gastric digestive fluid consisted of sodium chloride (0.18 mol/L), ultrapure water (180 mL), and 0.40 mg/mL of pepsin. The simulation intestinal digestive juice was composed of NaHCO3, ([…]), bile salt (3 g/100 mL), pancreatin (0.35 mg/mL), and 180 mL of ultrapure water. The antihypertensive and antioxidant SAGH peptides (5 mg/mL, 60 mL) were first hydrolyzed using 150 mL of simulative gastric fluid at 37 °C and 140 rpm for 90 min. The mixture was adjusted to pH 7.0, and 180 mL of the simulative intestinal hydrolysis fluid was added and stirred at 37 °C for 2 h. After boiling for 6 min, the mixture was cooled with running water to room temperature. The ACE inhibition capacity and antioxidant ability of the treated SAGH peptides were detected and compared to those of the […] SAGH peptides.

[7] = Gastrointestinal stability of SAGH peptide (simulated gastric and intestinal digestion); type: in vitro ADME; details: peptide 5 mg/mL; simulated gastric fluid (pepsin 0.40 mg/mL) 37 °C, 140 rpm, 90 min, then pH 7.0 intestinal fluid (pancreatin 0.35 mg/mL, bile salt 3 g/100 mL) 37 °C 2 h; read-out activity
Procedure: as §1

[8] = ABTS+ quenching ability; type: physicochemical; details: at 100 μg/mL; absorbance at 734 nm; mean ± standard error
Procedure: The ABTS^+ quenching ability was determined following the same procedures described by Vásquez et al.. The same system without the sample was the control, and glutathione (0.1 mg/mL) was the comparison. The percentage of reduction in absorbance at 734 nm was defined as the ABTS^+ scavenging ability of samples.

[9] = Hydroxyl radical scavenging activity (β-deoxyribose oxidation method); type: physicochemical; details: at 100 μg/mL
Procedure: (§2) As described by Wang et al. and Vásquez et al., the hydroxyl (·OH) and superoxide ( O2−· ) radicals’ scavenging activity was measured using the β-deoxyribose oxidation and pyrogallol auto-oxidation methods, respectively. The comparison was conducted when the samples were replaced by glutathione (0.1 mg/mL).

[10] = Superoxide radical scavenging activity (pyrogallol auto-oxidation method); type: physicochemical; details: at 100 μg/mL
Procedure: as §2

[11] = Reducing power (potassium ferricyanide method); type: physicochemical; details: at 100 μg/mL; absorbance at 700 nm
Description: The potassium ferricyanide method was employed to determine the reducing power of the SAGH peptides at the same conditions reported by Wang et al., where the absorbance at 700 nm represented the reducing power.

GCHHY
IC50 ([1]; peptide from millet bran glutelin-2): 147 µM

VIPTEPPHA [literature peptide from Faba beans]
IC50 ([1]; peptide from Faba beans): 260 µM
gastrointestinal stability (literature) ([2]; peptide from Faba beans): good gastrointestinal stability

PIIAKMY [literature peptide from millet glutelin-2]
gastrointestinal stability (literature) ([2]; peptide from millet glutelin-2): good gastrointestinal stability

VSRRFIYYL [literature antioxidant peptide from broad bean]
antioxidant activity (literature) ([3]; peptides from broad bean): excellent antioxidant activity

YLSF [literature antioxidant peptide from apricot]
antioxidant activity (literature) ([3]; peptides from apricot): excellent antioxidant activity

SGGEEAAAGP [oligopeptide identified in SAGH-D]
Ferrous chelating capacity [4]: 18.22 mg/g and 16.14 ± 0.43 g mg/g

[Cl][Fe][Cl] [ferrous chloride, reference compound]
ferrous solubility during gastric digestion ([5]; 0–90 min, simulated gastric fluid pH 1.9, 37 °C, 175 rpm, soluble ferrous by o-phenanthroline every 30 min, N = 3): relatively stable
ferrous solubility during intestinal digestion ([5]; 91–240 min, intestinal digestive fluid pH 6.8, soluble ferrous by o-phenanthroline, p < 0.05): apparently decreased

PMYGGGMV
IC50 ([6]; hippuric acid method, HHL substrate, absorbance at 228 nm, read-out: ACE inhibitory activity (IC50)): 121 µM
IC50 ([6]; peptide 5 mg/mL, simulated gastric fluid (pepsin 0.40 mg/mL) 37 °C 90 min, then intestinal fluid (pancreatin 0.35 mg/mL, bile salt) pH 7.0, 37 °C 2 h, read-out: ACE inhibitory activity (IC50) after simulated gastrointestinal digestion): 130 µM
stability of ACE inhibition and antioxidant activities during gastrointestinal digestion [7]: stable

LPSYVN [literature antioxidant peptide from apricot]
antioxidant activity (literature) ([3]; peptides from apricot): excellent antioxidant activity

SPAIPLP [literature antioxidant peptide from broad bean]
antioxidant activity (literature) ([3]; peptides from broad bean): excellent antioxidant activity

N[C@@H](CCC(=O)N[C@@H](CS)C(=O)NCC(=O)O)C(=O)O [Glutathione, glutathione, reference compound]
ABTS+ Scavenging Activity (%) Before Gastrointestinal Digestion [8]: 79.25 ± 1.67 b %
·OH Scavenging Activity (%) Before Gastrointestinal Digestion [9]: 95.56 ± 1.38 a,b %
Superoxide Radical Scavenging Ability (%) Before Gastrointestinal Digestion [10]: 90.52 ± 4.97 a %
Reducing Power Before Gastrointestinal Digestion [11]: 0.675 ± 0.019 a
